Data on 38 molecules can be found in ChEMBL document CHEMBL1142978, “Probing the anticancer activity of nucleoside analogues: a QSAR model approach using an internally consistent training set” (J Med Chem, 2007).

The term IC50 denotes the concentration that inhibits the measured activity by half. Higher therefore signals lower potency.

Some results are limits rather than exact numbers.

The assay in a line: Cytotoxicity against mouse L1210/0 cells after 48 hrs. The conditions noted are these: Mus musculus, L1210/0, 48 h. The assay is classed as cell-based.

`Nc1ncnc2c1ncn2[C@@H]1O[C@H](C=O)C(O)C1O` (single isomer, unassigned): half-maximal inhibition (IC50) required 36.6 µM. Then `O=c1ccn([C@@H]2CCC[C@H]2CO)c(=O)[nH]1`, with greater than 200 µM; and `Cc1cn(COCCO)c(=O)[nH]c1=O`, with greater than 200 µM. In turn, `C[C@H](O)C1CC(Cn2cnc3c(N)ncnc32)C1(C)C` (stereo partly drawn) registered an IC50 greater than 200 µM. With `CCCCCCc1cn([C@H]2C[C@H](O)[C@@H](CO)O2)c(=O)[nH]c1=O`, the IC50 is greater than 200 µM. In the case of `Nc1nc2c(ncn2COCCO)c(=O)[nH]1` [ACYCLOVIR], the IC50 turned out to be 57.7 µM. Regarding `Nc1nc(Cl)c2ncn(COCCO)c2n1`, the IC50 was greater than 200 µM.

`CC(=O)OCCOCn1cnc2c(S)nc(F)nc21`: the IC50 is 40 µM. `Nc1ccn(C[C@@H]2C[C@H](CO)c3ccccc32)c(=O)n1` gave an IC50 greater than 200 µM. Consider `OC[C@H]1C[C@@H](Cn2cnc3c(NC4CC4)ncnc32)c2ccccc21`, for which the IC50 was greater than 200 µM.

`O=C1C(O)=C(O)O/C1=C\Cn1cc(F)c(=O)[nH]c1=O` yielded a half-maximal inhibitory concentration (IC50) of 5.18 µM. Then `CS(=O)(=O)Cc1cn([C@H]2C[C@H](O)[C@@H](CO)O2)c(=O)[nH]c1=O`, with greater than 200 µM; and `Nc1ccn([C@@H]2O[C@H](CO)[C@H](F)[C@@H]2O)c(=O)n1`, with 159 µM; and `O=C1O/C(=C\Cn2cc(Br)c(=O)[nH]c2=O)C(OCc2ccccc2)=C1OCc1ccccc1`, with 7.5 µM. `OC[C@H]1CCC[C@@H]1n1cnc2c(Cl)ncnc21` displayed an IC50 greater than 200 µM. Consider `CCC#Cc1cn([C@@H]2O[C@H](CO)[C@@H](O)[C@@H]2O)c(=O)[nH]c1=O`, for which the IC50 was greater than 200 µM. In turn, `O=c1[nH]c(=O)n([C@H]2C[C@H](O)[C@@H](CO)O2)cc1C(F)(F)F` [TRIFLURIDINE] registered an IC50 of 0.02 µM.

As to `C[C@@]1(CO)O[C@H](c2ccc(N)cc2F)C[C@@H]1O`, the IC50 is greater than 200 µM. With `Nc1nc(Cl)c2nnn(C[C@H]3CC[C@@H](CO)C3)c2n1` the figure was 170 µM; with `O=c1[nH]c(=O)n([C@H]2C[C@H](O)[C@@H](CO)O2)cc1/C=C/I`, 63.9 µM; with `Nc1nc(Cl)c2nnn([C@H]3CCCC[C@H]3CO)c2n1`, 95.5 µM. On to `O=c1[nH]c(=O)n([C@H]2C[C@H](O)[C@@H](CO)O2)cc1[N+](=O)[O-]`, for which the IC50 is 0.13 µM. Then `Nc1nc(=O)n(COCCO)cc1[N+](=O)[O-]`, with greater than 200 µM.

The molecule `O=C1NCN([C@@H]2O[C@H](COP3OCCC(O)O3)[C@@H](O)C2=O)C=C1F` (stereo partly drawn) gave an IC50 of 0.84 µM. Molecule `CC(=O)OCCOCn1cnc2c(Cl)ncnc21` returned an IC50 of 163 µM. On to `CC1(C)[C@@H](CO)CC[C@@]1(C)Cn1cc(Br)c(=O)[nH]c1=O`, for which the IC50 is greater than 200 µM.

`O=c1ccn(C[C@@H]2CCC[C@H]2CO)c(=O)[nH]1` came in with an IC50 greater than 200 µM. Take `Nc1ncnc2c1ncn2C[C@@H]1C[C@H](O)c2ccccc21`: the IC50 was greater than 200 µM. With `Nc1nc(O)c2ncn([C@H]3CCCC[C@H]3CO)c2n1` the figure was greater than 200 µM; with `COc1c(C)c(C)c(OC)c(-c2cn([C@H]3C[C@H](O)[C@@H](CO)O3)c(=O)[nH]c2=O)c1C`, greater than 200 µM. Then `Nc1ncnc2c1ncn2[C@@H]1O[C@H](/C=C\I)[C@H](O)[C@@H]1O`, with 43 µM; and `COC1=C(OC)/C(=C/Cn2cnc3c(Cl)ncnc32)OC1=O`, with 14 µM. `CCc1cn([C@H]2C[C@H](O)[C@@H](CO)O2)c(=O)[nH]c1=O` [EDOXUDINE]: the IC50 was determined as 33.2 µM. Turning to `Nc1ncnc2c1ncn2[C@@H]1O[C@H](/C=C\Br)[C@H](O)[C@@H]1O`, half-maximal inhibition (IC50) required 104 µM. In turn, `O=c1[nH]c(=O)n([C@H]2C[C@H](O)[C@@H](CO)O2)cc1/C=C/Cl` yielded a concentration for half-maximal inhibition (IC50) greater than 200 µM. Then `O=c1[nH]c(=O)n([C@H]2C[C@H](O)[C@@H](CO)O2)cc1C1SCCS1`, with greater than 200 µM; and `OC[C@H]1C[C@@H](Cn2cnc3c(O)ncnc32)c2ccccc21`, with greater than 200 µM; and `O=C1O/C(=C\Cn2cc(C(F)(F)F)c(=O)[nH]c2=O)C(O)=C1O`, with greater than 200 µM.
